In patent US8299111B2, “Compounds which modulate the CB2 receptor” (Boehringer Ingelheim International GmbH, priority 2006, dated 2012):

Target: T1, human CB2R (Homo sapiens, UniProt P34972)
T1 construct: host or cells: CHO cells
Experiment: CB2R mediated modulation of cAMP synthesis
Type: cell-based
Conditions: found through the use of the above described assays (binding and cAMP); CHO cells expressing human CB2R, forskolin-stimulated cAMP
Outline: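 EC50 values reflect inhibition of cAMP made in response to 10 uM forskolin (with 1 mM IBMX, 0.25% BSA) over 30 min at 37 °C in human CB2R-expressing CHO cells. The window runs from forskolin alone to 1 uM CP55940; curves fitted with a four-parameter logistic model.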

T1 sequence (P34972 whole entry): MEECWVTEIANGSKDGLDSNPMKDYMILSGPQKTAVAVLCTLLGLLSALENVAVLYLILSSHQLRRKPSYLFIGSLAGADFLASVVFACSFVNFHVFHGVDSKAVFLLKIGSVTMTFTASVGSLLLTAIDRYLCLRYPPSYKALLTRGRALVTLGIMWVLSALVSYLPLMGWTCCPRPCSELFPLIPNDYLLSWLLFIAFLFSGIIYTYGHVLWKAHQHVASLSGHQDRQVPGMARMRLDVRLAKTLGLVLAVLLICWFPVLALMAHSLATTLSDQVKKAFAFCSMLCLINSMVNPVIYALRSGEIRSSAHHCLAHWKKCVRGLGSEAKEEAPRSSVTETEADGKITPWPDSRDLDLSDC

For `Cn1nc(-c2ccccc2)cc1NC(=O)C(C)(C)S(=O)(=O)c1ccc(C(F)(F)F)nc1` [2-Methyl-N-(2-methyl-5-phenyl-2H-pyrazol-3-yl)-2-(6-trifluoromethyl-pyridine-3-sulfonyl)-propionamide], the agonistic activity was “agonistic activity”.

With `Cc1ccc(S(=O)(=O)C(C)(C)C(=O)Nc2cc(-c3ccccc3)nn2C)cc1` [2-Methyl-N-(2-methyl-5-phenyl-2H-pyrazol-3-yl)-2-(toluene-4-sulfonyl)-propionamide] the agonistic activity was “agonistic activity”.

For `Cc1cnc(NC(=O)C(C)(C)S(=O)(=O)c2ccc(C(F)(F)F)cc2)s1` [2-Methyl-N-(5-methyl-thiazol-2-yl)-2-(4-trifluoromethyl-benzenesulfonyl)-propionamide], the agonistic activity was “agonistic activity”.

`Cc1cnc(NC(=O)C(C)(C)S(=O)(=O)c2ccc(C(F)(F)F)cn2)s1` [2-Methyl-N-(5-methyl-thiazol-2-yl)-2-(5-trifluoromethyl-pyridine-2-sulfonyl)-propionamide] was tested, and the agonistic activity was “agonistic activity”.

In the case of `CC(C)(C(=O)Nc1cccnc1)S(=O)(=O)c1ccc(C(F)(F)F)cc1` [2-Methyl-N-pyridin-3-yl-2-(4-trifluoromethyl-benzenesulfonyl)-propionamide], the agonistic activity is reported as “agonistic activity”.

In the case of `CCCc1cc(NC(=O)C(C)(C)S(=O)(=O)c2ccc(F)cc2F)on1` [2-[(2,4-difluorophenyl)sulfonyl]-2-methyl-N-(3-propylisoxazol-5-yl)propanamide], the agonistic activity is reported as “agonistic activity”.

With `CC(C)(C(=O)Nc1cc(C(F)(F)F)ccn1)S(=O)(=O)c1ccc(F)cc1F` [2-[(2,4-difluorophenyl)sulfonyl]-2-methyl-N-[4-(trifluoromethyl)pyridin-2-yl]propanamide] the agonistic activity was “agonistic activity”.

For `CC(C)(C(=O)Nc1ccc(C(F)(F)F)cn1)S(=O)(=O)c1ccc(F)cc1F` [2-[(2,4-difluorophenyl)sulfonyl]-2-methyl-N-[5-(trifluoromethyl)pyridin-2-yl]propanamide], the agonistic activity was “agonistic activity”.

`CC(C)(C(=O)Nc1cccc(C(F)(F)F)n1)S(=O)(=O)c1ccc(F)cc1F` [2-[(2,4-difluorophenyl)sulfonyl]-2-methyl-N-[6-(trifluoromethyl)pyridin-2-yl]propanamide] was tested, and the agonistic activity was “agonistic activity”.

In the case of `CCc1sc(NC(=O)C(C)(C)S(=O)(=O)c2ccc(F)cc2F)nc1-c1ccccc1` [2-[(2,4-difluorophenyl)sulfonyl]-N-(5-ethyl-4-phenyl-1,3-thiazol-2-yl)-2-methylpropanamide], the agonistic activity is reported as “agonistic activity”.

In the case of `CC(C)(C)Cc1cc(NC(=O)C(C)(C)S(=O)(=O)c2ccc(F)cc2F)on1` [2-[(2,4-difluorophenyl)sulfonyl]-N-[3-(2,2-dimethylpropyl)isoxazol-5-yl]-2-methylpropanamide], the agonistic activity is reported as “agonistic activity”.

In the case of `CC(C)(C(=O)Nc1cccc2ccccc12)S(=O)(=O)c1ccc(Cl)cc1F` [2-[(4-chloro-2-fluorophenyl)sulfonyl]-2-methyl-N-1-naphthylpropanamide], the agonistic activity is reported as “agonistic activity”.

With `CCCc1cc(NC(=O)C(C)(C)S(=O)(=O)c2ccc(Cl)cc2F)on1` [2-[(4-chloro-2-fluorophenyl)sulfonyl]-2-methyl-N-(3-propylisoxazol-5-yl)propanamide] the agonistic activity was “agonistic activity”.

In the case of `CC(C)(C(=O)Nc1nc(-c2ccccc2)cs1)S(=O)(=O)c1ccc(Cl)cc1F` [2-[(4-chloro-2-fluorophenyl)sulfonyl]-2-methyl-N-(4-phenyl-1,3-thiazol-2-yl)propanamide], the agonistic activity is reported as “agonistic activity”.

For `Cc1sc(NC(=O)C(C)(C)S(=O)(=O)c2ccc(Cl)cc2F)nc1-c1ccccc1` [2-[(4-chloro-2-fluorophenyl)sulfonyl]-2-methyl-N-(5-methyl-4-phenyl-1,3-thiazol-2-yl)propanamide], the agonistic activity was “agonistic activity”.

With `Cc1ccc(NC(=O)C(C)(C)S(=O)(=O)c2ccc(Cl)cc2F)nc1` [2-[(4-chloro-2-fluorophenyl)sulfonyl]-2-methyl-N-(5-methylpyridin-2-yl)propanamide] the agonistic activity was “agonistic activity”.

With `CC(C)(C(=O)Nc1nsc(-c2ccccc2)n1)S(=O)(=O)c1ccc(Cl)cc1F` [2-[(4-chloro-2-fluorophenyl)sulfonyl]-2-methyl-N-(5-phenyl-1,2,4-thiadiazol-3-yl)propanamide] the agonistic activity was “agonistic activity”.

`CC(C)(C(=O)Nc1cccc(C(F)(F)F)c1)S(=O)(=O)c1ccc(Cl)cc1F` [2-[(4-chloro-2-fluorophenyl)sulfonyl]-2-methyl-N-[3-(trifluoromethyl)phenyl]propanamide] was tested, and the agonistic activity was “agonistic activity”.

For `CC(C)(C(=O)Nc1nc(C(F)(F)F)cs1)S(=O)(=O)c1ccc(Cl)cc1F` [2-[(4-chloro-2-fluorophenyl)sulfonyl]-2-methyl-N-[4-(trifluoromethyl)-1,3-thiazol-2-yl]propanamide], the agonistic activity was “agonistic activity”.

For `CC(C)(C(=O)Nc1ccc(C(F)(F)F)cc1)S(=O)(=O)c1ccc(Cl)cc1F` [2-[(4-chloro-2-fluorophenyl)sulfonyl]-2-methyl-N-[4-(trifluoromethyl)phenyl]propanamide], the agonistic activity was “agonistic activity”.

`CC(C)(C(=O)Nc1ccc2ccccc2n1)S(=O)(=O)c1ccc(Cl)cc1F` [2-[(4-chloro-2-fluorophenyl)sulfonyl]-2-methyl-N-quinolin-2-ylpropanamide] was tested, and the agonistic activity was “agonistic activity”.

`CC(C)(C(=O)Nc1cnc2ccccc2c1)S(=O)(=O)c1ccc(Cl)cc1F` [2-[(4-chloro-2-fluorophenyl)sulfonyl]-2-methyl-N-quinolin-3-ylpropanamide] was tested, and the agonistic activity was “agonistic activity”.

For `CC(C)(C(=O)Nc1nc(C2CCCCC2)cs1)S(=O)(=O)c1ccc(Cl)cc1F` [2-[(4-chloro-2-fluorophenyl)sulfonyl]-N-(4-cyclohexyl-1,3-thiazol-2-yl)-2-methylpropanamide], the agonistic activity was “agonistic activity”.

`CC(C)(C(=O)Nc1nc(C2CC2)cs1)S(=O)(=O)c1ccc(Cl)cc1F` [2-[(4-chloro-2-fluorophenyl)sulfonyl]-N-(4-cyclopropyl-1,3-thiazol-2-yl)-2-methylpropanamide] was tested, and the agonistic activity was “agonistic activity”.

`CCc1ccnc(NC(=O)C(C)(C)S(=O)(=O)c2ccc(Cl)cc2F)c1` [2-[(4-chloro-2-fluorophenyl)sulfonyl]-N-(4-ethylpyridin-2-yl)-2-methylpropanamide] was tested, and the agonistic activity was “agonistic activity”.

With `CC(C)(C)Cc1cc(NC(=O)C(C)(C)S(=O)(=O)c2ccc(Cl)cc2F)on1` [2-[(4-chloro-2-fluorophenyl)sulfonyl]-N-[3-(2,2-dimethylpropyl)isoxazol-5-yl]-2-methylpropanamide] the agonistic activity was “agonistic activity”.

For `CC(C)(C(=O)Nc1nc(-c2ccc(Cl)cc2)cs1)S(=O)(=O)c1ccc(Cl)cc1F` [2-[(4-chloro-2-fluorophenyl)sulfonyl]-N-[4-(4-chlorophenyl)-1,3-thiazol-2-yl]-2-methylpropanamide], the agonistic activity was “agonistic activity”.

`CC(C)(C(=O)Nc1cc2ccccc2cn1)S(=O)(=O)c1ccc(Cl)cc1F` [2-[(4-chloro-2-fluorophenyl)sulfonyl]-N-isoquinolin-3-yl-2-methylpropanamide] was tested, and the agonistic activity was “agonistic activity”.

In the case of `Cc1ccnc(NC(=O)C(C)(C)S(=O)(=O)c2ccc(Cl)cc2)n1` [2-[(4-chlorophenyl)sulfonyl]-2-methyl-N-(4-methylpyrimidin-2-yl)propanamide], the agonistic activity is reported as “agonistic activity”.

With `CC(C)(C(=O)Nc1nc2c(F)cccc2s1)S(=O)(=O)c1ccc(Cl)cc1` [2-[(4-chlorophenyl)sulfonyl]-N-(4-fluoro-1,3-benzothiazol-2-yl)-2-methylpropanamide] the agonistic activity was “agonistic activity”.

`CC(C)(C(=O)Nc1nc2ccc(F)cc2s1)S(=O)(=O)c1ccc(Cl)cc1` [2-[(4-chlorophenyl)sulfonyl]-N-(6-fluoro-1,3-benzothiazol-2-yl)-2-methylpropanamide] was tested, and the agonistic activity was “agonistic activity”.

In the case of `CC(C)(C(=O)Nc1ccc(C(F)(F)F)cc1F)S(=O)(=O)c1ccc(Cl)cc1` [2-[(4-chlorophenyl)sulfonyl]-N-[2-fluoro-4-(trifluoromethyl)phenyl]-2-methylpropanamide], the agonistic activity is reported as “agonistic activity”.

For `CC(C)(C(=O)Nc1ccc(C(F)(F)F)c(F)c1)S(=O)(=O)c1ccc(Cl)cc1` [2-[(4-chlorophenyl)sulfonyl]-N-[3-fluoro-4-(trifluoromethyl)phenyl]-2-methylpropanamide], the agonistic activity was “agonistic activity”.

In the case of `CC(C)(C(=O)Nc1nc(-c2ccc(F)cc2)cs1)S(=O)(=O)c1ccc(Cl)cc1` [2-[(4-chlorophenyl)sulfonyl]-N-[4-(4-fluorophenyl)-1,3-thiazol-2-yl]-2-methylpropanamide], the agonistic activity is reported as “agonistic activity”.

For `Cc1sc(NC(=O)C(C)(C)S(=O)(=O)c2ccc(Cl)cc2)nc1-c1ccc(F)cc1` [2-[(4-chlorophenyl)sulfonyl]-N-[4-(4-fluorophenyl)-5-methyl-1,3-thiazol-2-yl]-2-methylpropanamide], the agonistic activity was “agonistic activity”.

With `CC(C)(C(=O)Nc1ccc(F)c(C(F)(F)F)c1)S(=O)(=O)c1ccc(Cl)cc1` [2-[(4-chlorophenyl)sulfonyl]-N-[4-fluoro-3-(trifluoromethyl)phenyl]-2-methylpropanamide] the agonistic activity was “agonistic activity”.

`CCCc1cc(NC(=O)C(C)(C)S(=O)(=O)c2ccc(OC)cc2)on1` [2-[(4-methoxyphenyl)sulfonyl]-2-methyl-N-(3-propylisoxazol-5-yl)propanamide] was tested, and the agonistic activity was “agonistic activity”.

For `COc1ccc(S(=O)(=O)C(C)(C)C(=O)Nc2cccc(C(F)(F)F)n2)cc1` [2-[(4-methoxyphenyl)sulfonyl]-2-methyl-N-[6-(trifluoromethyl)pyridin-2-yl]propanamide], the agonistic activity was “agonistic activity”.

In the case of `CCCc1cc(NC(=O)C(C)(C)S(=O)(=O)c2ccc(S(C)(=O)=O)cc2)on1` [2-methyl-2-{[4-(methylsulfonyl)phenyl]sulfonyl}-N-(3-propylisoxazol-5-yl)propanamide], the agonistic activity is reported as “agonistic activity”.
